The values that follow come from ChEMBL document CHEMBL5518246, “Discovery of Small Molecule Interleukin 17A Inhibitors with Novel Binding Mode and Stoichiometry: Optimization of DNA-Encoded Chemical Library Hits to In Vivo Active Compounds” (J Med Chem, 2024).

≈ marks a conversion by molar mass, not a printed value.

One data set can be described thus: Metabolic stability in human liver microsomes assessed as unbound intrinsic clearance at 0.5 uM measured after 4 hrs.
Settings: not given
The data set is classed as ADME, Microsome. (In general: Liver microsomes are vesicles of endoplasmic reticulum, rich in cytochrome P450 enzymes.)
Regarding `C[C@H](NC(=O)[C@H](CCc1ccccc1)NC(=O)c1cc(Cl)c(Cl)[nH]1)c1nc2cnccc2s1`, the CL free worked out at 500 mL/min/kg.
For `O=C(N[C@@H](CCc1ccccc1)C(=O)NCc1cn2cccnc2n1)c1cc(Cl)c(Cl)[nH]1`, the CL free was determined as 233 mL/min/kg.
For `CN1C(=O)[C@@H](NC(=O)[C@@H](NC(=O)c2cc(Cl)c(Cl)[nH]2)C2CCCCC2)COc2ccccc21`, the CL free is 6000 mL/min/kg.
Still for that read-out and setting: under `C[C@H](NC(=O)[C@H](CCc1ccccc1)NC(=O)c1cc(Cl)c(Cl)[nH]1)c1cn2cccnc2n1` stands 200 mL/min/kg; under `O=C(N[C@@]1(C(=O)NCc2cn3cccnc3n2)CO[C@H](c2ccccc2)C1)c1cc(Cl)c(Cl)[nH]1`, 63.3 mL/min/kg; under `CC(=O)N1CCO[C@@H](CNC(=O)[C@H](CCc2ccccc2)NC(=O)c2cc(Cl)c(Cl)[nH]2)C1`, 70 mL/min/kg.
Consider `C[C@H](NC(=O)[C@]1(NC(=O)c2cc(Cl)c(Cl)[nH]2)CO[C@H](c2ccccc2)C1)c1cc2c(nn1)COC2`, for which the CL free is 102 mL/min/kg.
Take `COCc1cnc([C@H](C)NC(=O)[C@]2(NC(=O)c3cc(Cl)c(Cl)[nH]3)CO[C@H](c3ccccc3)C2)nc1`: the CL free was determined as 78.3 mL/min/kg.
Same read-out and setting: the value for `O=C(N[C@@]1(C(=O)NCc2cn3cccnc3n2)CO[C@@H](c2ccccc2)C1)c1cc(Cl)c(Cl)[nH]1` was 115 mL/min/kg.
For `C[C@H](NC(=O)[C@]1(NC(=O)c2cc(Cl)c(Cl)[nH]2)CO[C@H](c2ccccc2)C1)c1ncc2c(n1)CN(CCC(F)(F)F)C2`, the CL free came out at 183 mL/min/kg.
For `O=C(CN1C(=O)[C@@H](NC(=O)[C@@H](NC(=O)c2cc(Cl)c(Cl)[nH]2)C2CCCCC2)CSc2ccccc21)Nc1ccccc1`, the CL free worked out at 35000 mL/min/kg.
`O=C(N[C@]1(C(=O)NCc2cn3cccnc3n2)CO[C@@H](c2ccccc2)C1)c1cc(Cl)c(Cl)[nH]1`: the CL free is under 35 mL/min/kg.
As to `O=C(N[C@@H](CCc1ccccc1)C(=O)NCCC1(O)CCOCC1)c1cc(Cl)c(Cl)[nH]1`, the CL free was 160 mL/min/kg.
The same measure, in the same setting: under `CNC(=O)[C@H](CCc1ccccc1)NC(=O)c1cc(C)c[nH]1` stands 35 mL/min/kg.
Take `COC[C@H](NC(=O)[C@H](CCc1ccccc1)NC(=O)c1cc(Cl)c(Cl)[nH]1)c1cn2cccnc2n1`: the CL free was determined as 107 mL/min/kg.
As for `CNC(=O)[C@@H]1C[C@@H](c2ccccc2)CN1C(=O)c1cc(Cl)c(Cl)[nH]1`, the CL free is 85 mL/min/kg.
Consider `O=C(N[C@@H](CCc1ccccc1)C(=O)NCC1(CO)CCOCC1)c1cc(Cl)c(Cl)[nH]1`, for which the CL free came to 135 mL/min/kg.
On the same count and under the same terms, the value for `C[C@H](NC(=O)[C@H](CCc1ccccc1)NC(=O)c1cc(Cl)c(Cl)[nH]1)c1cn2ccoc2n1` was 333 mL/min/kg.
Still for that read-out and setting: under `O=C(N[C@H](C(=O)NCc1cn2cccnc2n1)[C@@H]1C[C@H]1c1ccccc1)c1cc(Cl)c(Cl)[nH]1` stands 217 mL/min/kg; under `O=C(N[C@@H](CCc1ccccc1)C(=O)NC[C@H]1COCCO1)c1cc(Cl)c(Cl)[nH]1`, 98.3 mL/min/kg; under `CNC(=O)[C@H](CCc1ccccc1)NC(=O)c1cc(Cl)c(Cl)[nH]1`, under 40 mL/min/kg.
`O=C(N[C@@H](CCc1ccccc1)C(=O)NC[C@@H]1COCCO1)c1cc(Cl)c(Cl)[nH]1`: the CL free is 60 mL/min/kg.
On the same count and under the same terms, under `CN1CCN(CCNC(=O)[C@H](CCc2ccccc2)NC(=O)c2cc(Cl)c(Cl)[nH]2)CC1` stands 217 mL/min/kg; under `O=C(N[C@H](C(=O)NCc1cn2cccnc2n1)[C@H]1C[C@@H]1c1ccccc1)c1cc(Cl)c(Cl)[nH]1`, 533 mL/min/kg.
Regarding `O=C(N[C@@H](CCc1ccccc1)C(=O)NC1(c2cn3cccnc3n2)CC1)c1cc(Cl)c(Cl)[nH]1`, the CL free came out at 58.3 mL/min/kg.
Consider `O=C(N[C@@H](CCc1ccccc1)C(=O)NCC1(O)CCOCC1)c1cc(Cl)c(Cl)[nH]1`, for which the CL free amounted to 113 mL/min/kg.
For `CC[C@H](NC(=O)[C@H](CCc1ccccc1)NC(=O)c1cc(Cl)c(Cl)[nH]1)c1cn2cccnc2n1`, the CL free was found to be 125 mL/min/kg.
For `CNC(=O)[C@@H](NC(=O)c1cc(Cl)c(Cl)[nH]1)C1Cc2ccccc2C1`, the CL free was determined as 145 mL/min/kg.
For `C[C@H](NC(=O)[C@]1(NC(=O)c2cc(Cl)c(Cl)[nH]2)CO[C@H](c2ccccc2)C1)c1cnc2c(n1)COC2`, the CL free is 183 mL/min/kg.
For the molecule `O=C(N[C@@H](CCc1ccccc1)C(=O)N[C@@H](CO)c1cn2cccnc2n1)c1cc(Cl)c(Cl)[nH]1`, the CL free came out at 938 mL/min/kg.
On to `CC(=O)N1CCO[C@H](CNC(=O)[C@H](CCc2ccccc2)NC(=O)c2cc(Cl)c(Cl)[nH]2)C1`, for which the CL free came to 56.7 mL/min/kg.
On to `O=C(N[C@H](C(=O)NCc1cn2cccnc2n1)[C@H]1CCc2ccccc2C1)c1cc(Cl)c(Cl)[nH]1`, for which the CL free came out at 667 mL/min/kg.
Take `CNC(=O)[C@@H](NC(=O)c1cc(Cl)c(Cl)[nH]1)C1CCCCC1`: the CL free worked out at 90 mL/min/kg.
Still for that read-out and setting: under `C[C@H](NC(=O)[C@]1(NC(=O)c2cc(Cl)c(Cl)[nH]2)CO[C@H](c2ccccc2)C1)c1ncc(CO)cn1` stands under 28.3 mL/min/kg; under `O=C(N[C@H](C(=O)NCc1cn2cccnc2n1)C1Cc2ccccc2C1)c1cc(Cl)c(Cl)[nH]1`, 120 mL/min/kg; under `CC(C)(NC(=O)[C@H](CCc1ccccc1)NC(=O)c1cc(Cl)c(Cl)[nH]1)c1cn2cccnc2n1`, 350 mL/min/kg.
With `C[C@H](NC(=O)[C@]1(NC(=O)c2cc(Cl)c(Cl)[nH]2)CO[C@H](c2ccccc2)C1)c1ncc2c(n1)CCC2`, the CL free came to 333 mL/min/kg.
Still for that read-out and setting: under `C[C@H](NC(=O)[C@H](CCc1ccccc1)NC(=O)c1cc(Cl)c(Cl)[nH]1)c1cn2ccsc2n1` stands 1680 mL/min/kg; under `O=C(N[C@]1(C(=O)NCc2cn3cccnc3n2)CO[C@H](c2ccccc2)C1)c1cc(Cl)c(Cl)[nH]1`, 43.3 mL/min/kg.
Regarding `CNC(=O)[C@H](CC(C)(C)C)NC(=O)c1cc(Cl)c(Cl)[nH]1`, the CL free was under 33 mL/min/kg.
Take `C[C@H](NC(=O)[C@H](CCc1ccccc1)NC(=O)c1cc(Cl)c(Cl)[nH]1)c1cn2nccnc2n1`: the CL free came out at 200 mL/min/kg.
Regarding `O=C(NC1(C(=O)NCc2cn3cccnc3n2)Cc2ccccc2C1)c1cc(Cl)c(Cl)[nH]1`, the CL free came out at 115 mL/min/kg.
For `O=C(N[C@H](C(=O)NCc1cn2cccnc2n1)[C@@H]1CCc2ccccc2C1)c1cc(Cl)c(Cl)[nH]1`, the CL free was 1050 mL/min/kg.
For `C[C@@H](NC(=O)[C@H](CCc1ccccc1)NC(=O)c1cc(Cl)c(Cl)[nH]1)c1cn2cccnc2n1`, the CL free amounted to 267 mL/min/kg.
Take `O=C(NC(CCc1ccccc1)C(=O)NCc1cn2cccnc2n1)c1cc(Cl)c(Cl)[nH]1` (racemic): the CL free amounted to 217 mL/min/kg.
With `O=C(NC(CCc1ccccc1)C(=O)NCc1cnc(N2CCOCC2)nc1)c1cc(Cl)c(Cl)[nH]1` (racemic), the CL free is 1030 mL/min/kg.
On to `O=C(NC(CCc1ccccc1)C(=O)NCc1cccnc1N1CCOCC1)c1cc(Cl)c(Cl)[nH]1` (racemic), for which the CL free came to 817 mL/min/kg.
Take `O=C(NC(CCc1ccccc1)C(=O)NCc1cn2ccsc2n1)c1cc(Cl)c(Cl)[nH]1` (racemic): the CL free was found to be 1120 mL/min/kg.

The next data set can be described thus: Thermodynamic solubility of the compound at pH 7.4 measured after 48 hrs by UHPLC analysis. The data set is classed as physicochemical. To be noted: buffer, read-out: Therm_solubility.
Turning to `C[C@H](NC(=O)[C@]1(NC(=O)c2cc(Cl)c(Cl)[nH]2)CO[C@H](c2ccccc2)C1)c1cc2c(nn1)COC2`, the solubility thermodynamic at 48 h is 31 µM (≈ 16 µg/mL).
On to `COCc1cnc([C@H](C)NC(=O)[C@]2(NC(=O)c3cc(Cl)c(Cl)[nH]3)CO[C@H](c3ccccc3)C2)nc1`, for which the solubility thermodynamic at 48 h turned out to be 0.82 µM (≈ 0.425 µg/mL).
In the case of `C[C@H](NC(=O)[C@]1(NC(=O)c2cc(Cl)c(Cl)[nH]2)CO[C@H](c2ccccc2)C1)c1cnc2c(n1)COC2`, the solubility thermodynamic at 48 h worked out at 60 µM (≈ 31 µg/mL).
On to `C[C@H](NC(=O)[C@]1(NC(=O)c2cc(Cl)c(Cl)[nH]2)CO[C@H](c2ccccc2)C1)c1ncc(CO)cn1`, for which the solubility thermodynamic at 48 h is 67 µM (≈ 33.8 µg/mL).
For the molecule `C[C@H](NC(=O)[C@]1(NC(=O)c2cc(Cl)c(Cl)[nH]2)CO[C@H](c2ccccc2)C1)c1ncc2c(n1)CCC2`, the solubility thermodynamic at 48 h came out at 3.8 µM (≈ 1.95 µg/mL).
